In PubChem BioAssay (NCI):
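The compound was tested at five concentrations on cells cultured in 96-well plates, with a 48-hour exposure period. GI50 is the concentration that inhibits growth by half. TGI denotes the concentration required for complete inhibition of growth.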

Tests used:
Experiment in all cases: growth of human tumour cells (NCI), 48 h
MDA-MB-231 breast = test system: MDA-MB-231 breast
SF-268 CNS = test system: SF-268 CNS
OVCAR-4 ovarian = test system: OVCAR-4 ovarian
LOX IMVI melanoma = test system: LOX IMVI melanoma
SNB-75 CNS = test system: SNB-75 CNS
SR leukemia = test system: SR leukemia
MDA-MB-435 = test system: MDA-MB-435
HS 578T breast = test system: HS 578T breast
A549 NSCLC = test system: A549 NSCLC
COLO 205 colon = test system: COLO 205 colon
SF-295 CNS = test system: SF-295 CNS
RPMI-8226 leukemia = test system: RPMI-8226 leukemia
U251 CNS = test system: U251 CNS
SK-MEL-28 melanoma = test system: SK-MEL-28 melanoma
NCI-H226 lung = test system: NCI-H226 lung
OVCAR-8 ovarian = test system: OVCAR-8 ovarian
ACHN renal = test system: ACHN renal
A498 renal = test system: A498 renal
HL-60(TB) leukemia = test system: HL-60(TB) leukemia
UACC-62 melanoma = test system: UACC-62 melanoma
MOLT-4 leukemia = test system: MOLT-4 leukemia
NCI-H23 lung = test system: NCI-H23 lung
CAKI-1 renal = test system: CAKI-1 renal
SK-OV-3 ovarian = test system: SK-OV-3 ovarian
HOP-62 NSCLC = test system: HOP-62 NSCLC
SK-MEL-5 melanoma = test system: SK-MEL-5 melanoma
HT29 colon = test system: HT29 colon
NCI/ADR-RES ovarian = test system: NCI/ADR-RES ovarian
HCT-116 colon = test system: HCT-116 colon
MCF7 breast = test system: MCF7 breast
BT-549 breast = test system: BT-549 breast
DU-145 prostate = test system: DU-145 prostate
UO-31 renal = test system: UO-31 renal
SF-539 CNS = test system: SF-539 CNS
OVCAR-5 ovarian = test system: OVCAR-5 ovarian
KM12 colon = test system: KM12 colon
SW-620 colon = test system: SW-620 colon
EKVX NSCLC = test system: EKVX NSCLC
K-562 leukemia = test system: K-562 leukemia
OVCAR-3 ovarian = test system: OVCAR-3 ovarian
NCI-H460 lung = test system: NCI-H460 lung
SK-MEL-2 melanoma = test system: SK-MEL-2 melanoma
CCRF-CEM leukemia = test system: CCRF-CEM leukemia
TK-10 renal = test system: TK-10 renal
786-0 renal = test system: 786-0 renal
HCT-15 colon = test system: HCT-15 colon
T-47D breast = test system: T-47D breast
SNB-19 CNS = test system: SNB-19 CNS
MALME-3M melanoma = test system: MALME-3M melanoma
PC-3 prostate = test system: PC-3 prostate
IGROV1 ovarian = test system: IGROV1 ovarian
HCC-2998 colon = test system: HCC-2998 colon
HOP-92 NSCLC = test system: HOP-92 NSCLC
UACC-257 melanoma = test system: UACC-257 melanoma
SN12C renal = test system: SN12C renal
M14 melanoma = test system: M14 melanoma
NCI-H522 lung = test system: NCI-H522 lung

Compound: CN1CCN(c2ccc(Nc3nc(NCCCNS(=O)(=O)c4cccc(F)c4)c4sccc4n3)cc2)CC1
- GI50 (MDA-MB-231 breast): 3.54 µM
- TGI (MDA-MB-231 breast): 12.7 µM
- GI50 (SF-268 CNS): 6.41 µM
- TGI (SF-268 CNS): 24.9 µM
- GI50 (OVCAR-4 ovarian): 3.45 µM
- TGI (OVCAR-4 ovarian): 14.7 µM
- GI50 (LOX IMVI melanoma): 1.74 µM
- TGI (LOX IMVI melanoma): 3.58 µM
- GI50 (SNB-75 CNS): 11.5 µM
- TGI (SNB-75 CNS): 23.9 µM
- GI50 (SR leukemia): 1.79 µM
- TGI (SR leukemia): 5.5 µM
- GI50 (MDA-MB-435): 3.01 µM
- TGI (MDA-MB-435): 11.3 µM
- GI50 (HS 578T breast): 3.72 µM
- TGI (HS 578T breast): 34.4 µM
- GI50 (A549 NSCLC): 10 µM
- TGI (A549 NSCLC): 23.7 µM
- GI50 (COLO 205 colon): 3.61 µM
- TGI (COLO 205 colon): 16.1 µM
- GI50 (SF-295 CNS): 3.74 µM
- TGI (SF-295 CNS): 13.8 µM
- GI50 (RPMI-8226 leukemia): 2.85 µM
- TGI (RPMI-8226 leukemia): 13.9 µM
- GI50 (U251 CNS): 3.31 µM
- TGI (U251 CNS): 13.5 µM
- GI50 (SK-MEL-28 melanoma): 1.61 µM
- TGI (SK-MEL-28 melanoma): 3.08 µM
- GI50 (NCI-H226 lung): 6.63 µM
- TGI (NCI-H226 lung): 20.1 µM
- GI50 (OVCAR-8 ovarian): 5.67 µM
- TGI (OVCAR-8 ovarian): 23.2 µM
- GI50 (ACHN renal): 4.49 µM
- TGI (ACHN renal): 16.2 µM
- GI50 (A498 renal): 10.9 µM
- TGI (A498 renal): 23 µM
- GI50 (HL-60(TB) leukemia): 1.78 µM
- TGI (HL-60(TB) leukemia): 3.74 µM
- GI50 (UACC-62 melanoma): 2.46 µM
- TGI (UACC-62 melanoma): 7.07 µM
- GI50 (MOLT-4 leukemia): 1.34 µM
- TGI (MOLT-4 leukemia): 12.8 µM
- GI50 (NCI-H23 lung): 11.7 µM
- TGI (NCI-H23 lung): 25.7 µM
- GI50 (CAKI-1 renal): 10.8 µM
- TGI (CAKI-1 renal): 22.6 µM
- GI50 (SK-OV-3 ovarian): 17.3 µM
- TGI (SK-OV-3 ovarian): 32.3 µM
- GI50 (HOP-62 NSCLC): 14.8 µM
- TGI (HOP-62 NSCLC): 29 µM
- GI50 (SK-MEL-5 melanoma): 3.49 µM
- TGI (SK-MEL-5 melanoma): 12 µM
- GI50 (HT29 colon): 2.18 µM
- TGI (HT29 colon): 5.14 µM
- GI50 (NCI/ADR-RES ovarian): 13.9 µM
- TGI (NCI/ADR-RES ovarian): 38.5 µM
- GI50 (HCT-116 colon): 3.73 µM
- TGI (HCT-116 colon): 16.4 µM
- GI50 (MCF7 breast): 3.52 µM
- TGI (MCF7 breast): 14.3 µM
- GI50 (BT-549 breast): 8.19 µM
- TGI (BT-549 breast): 23.9 µM
- GI50 (DU-145 prostate): 10.5 µM
- TGI (DU-145 prostate): 23 µM
- GI50 (UO-31 renal): 10.1 µM
- TGI (UO-31 renal): 21.7 µM
- GI50 (SF-539 CNS): 1.67 µM
- TGI (SF-539 CNS): 3.18 µM
- GI50 (OVCAR-5 ovarian): 10.2 µM
- TGI (OVCAR-5 ovarian): 22.3 µM
- GI50 (KM12 colon): 10.8 µM
- TGI (KM12 colon): 40.5 µM
- GI50 (SW-620 colon): 4.12 µM
- TGI (SW-620 colon): 17.2 µM
- GI50 (EKVX NSCLC): 9.48 µM
- TGI (EKVX NSCLC): 21.3 µM
- GI50 (K-562 leukemia): 1.43 µM
- TGI (K-562 leukemia): 9.8 µM
- GI50 (OVCAR-3 ovarian): 3.59 µM
- TGI (OVCAR-3 ovarian): 15.3 µM
- GI50 (NCI-H460 lung): 3.81 µM
- TGI (NCI-H460 lung): 14.6 µM
- GI50 (SK-MEL-2 melanoma): 12.8 µM
- TGI (SK-MEL-2 melanoma): 25.9 µM
- GI50 (CCRF-CEM leukemia): 3.99 µM
- TGI (CCRF-CEM leukemia): > 100 µM
- GI50 (TK-10 renal): 14.5 µM
- TGI (TK-10 renal): 28.2 µM
- GI50 (786-0 renal): 2.47 µM
- TGI (786-0 renal): 6.25 µM
- GI50 (HCT-15 colon): 2.18 µM
- TGI (HCT-15 colon): 6.88 µM
- GI50 (T-47D breast): 10.9 µM
- TGI (T-47D breast): 31.1 µM
- GI50 (SNB-19 CNS): 7.7 µM
- TGI (SNB-19 CNS): 20.2 µM
- GI50 (MALME-3M melanoma): 1.8 µM
- TGI (MALME-3M melanoma): 3.25 µM
- GI50 (PC-3 prostate): 6.87 µM
- TGI (PC-3 prostate): 25.1 µM
- GI50 (IGROV1 ovarian): 7.33 µM
- TGI (IGROV1 ovarian): 20.9 µM
- GI50 (HCC-2998 colon): 4.35 µM
- TGI (HCC-2998 colon): 15.5 µM
- GI50 (HOP-92 NSCLC): 3.37 µM
- TGI (HOP-92 NSCLC): 17.1 µM
- GI50 (UACC-257 melanoma): 1.86 µM
- TGI (UACC-257 melanoma): 3.81 µM
- GI50 (SN12C renal): 11.5 µM
- TGI (SN12C renal): 23.8 µM
- GI50 (M14 melanoma): 1.78 µM
- TGI (M14 melanoma): 3.69 µM
- GI50 (NCI-H522 lung): 3.2 µM
- TGI (NCI-H522 lung): 14.1 µM
